Measured values published in PubChem BioAssay (NCI).
“And” between values parts separate entries of the source, which are not always exact repeats. Identical values can stand only once.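 All cell lines were grown in 96-well plates and treated with compound for 48 hours. At the GI50, growth is halved. TGI marks complete inhibition of growth.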

Assays:
Experiment in all cases: inhibition of tumour cell growth, NCI panel, 48 h
HT29 colon = system: HT29 colon
MALME-3M melanoma = system: MALME-3M melanoma
SK-MEL-28 melanoma = system: SK-MEL-28 melanoma
SNB-19 CNS = system: SNB-19 CNS
DU-145 prostate = system: DU-145 prostate
EKVX NSCLC = system: EKVX NSCLC
UACC-257 melanoma = system: UACC-257 melanoma
T-47D breast = system: T-47D breast
SF-295 CNS = system: SF-295 CNS
ACHN renal = system: ACHN renal

| Structure (SMILES) | GI50 (HT29 colon) | TGI (HT29 colon) | TGI (MALME-3M melanoma) | GI50 (SK-MEL-28 melanoma) | TGI (SK-MEL-28 melanoma) | GI50 (SNB-19 CNS) | TGI (SNB-19 CNS) | GI50 (DU-145 prostate) | TGI (DU-145 prostate) | GI50 (EKVX NSCLC) | TGI (EKVX NSCLC) | GI50 (UACC-257 melanoma) | TGI (UACC-257 melanoma) | TGI (T-47D breast) | GI50 (SF-295 CNS) | TGI (SF-295 CNS) | GI50 (ACHN renal) | TGI (ACHN renal) | GI50 (MALME-3M melanoma) | GI50 (T-47D breast) [µM] |
| --- | --- | --- | --- | --- | --- | --- | --- | --- | --- | --- | --- | --- | --- | --- | --- | --- | --- | --- | --- | --- |
| C=CCN(/C=C1\C(=O)O[C@H](COC)[C@@]2(C)C1=C(O)C(=O)C1=C2[C@H](OC(C)=O)C[C@]2(C)C(=O)CC[C@@H]12)CC=C | 0.101 µM and 0.558 µM | 20 µM and > 100 µM | 5.5 µM and 8.3 µM | 0.838 µM | 49.1 µM | 5.92 µM and 1.1 µM | 20 µM and 92.9 µM | 11.2 µM and 1.27 µM | 20 µM and > 100 µM | 0.474 µM and 0.0779 µM | 10.4 µM and 1.67 µM | 9.18 µM and 2.26 µM | 20 µM and > 100 µM | 20 µM and > 100 µM | 0.0935 µM and 0.205 µM | 4.82 µM and 9.89 µM | 2.74 µM and 0.449 µM | 20 µM and > 100 µM | – | – |
| COC(=O)[C@H](CC(C)C)NC(=O)NC(=O)NC(=O)CI | 1.93 µM | 3.59 µM | 3.43 µM | 5.64 µM | 19.1 µM | 18 µM | 37.1 µM | 14 µM | 27 µM | 16.1 µM | 29.8 µM | 7.76 µM | 20.3 µM | 7.03 µM | 14.7 µM | 28.7 µM | 1.78 µM | 3.38 µM | 1.62 µM | 2.28 |
| CCc1c(Cl)nc(Cl)nc1Cl | – | 1.3 µM | 0.718 µM | – | 5.54 µM | – | 8.79 µM | – | 6.35 µM | – | 1.94 µM | – | 2.79 µM | 1.7 µM | – | 5.84 µM | – | 0.219 µM | – | – |
| COc1cc([C@@H]2c3cc4c(cc3[C@H](O)[C@H]3COC(=O)[C@H]23)OCO4)cc(OC)c1OC | < 0.01 µM | – | > 100 µM and 50 µM | < 0.01 µM | > 100 µM and 50 µM | < 0.01 µM | > 100 µM and 50 µM | < 0.01 µM | 0.5 µM | – | > 100 µM and 50 µM | – | > 100 µM and 50 µM | > 100 µM and 34.1 µM | < 0.01 µM | – | < 0.01 µM | > 100 µM and 50 µM | – | > 84.5 |
| Clc1ccc(-c2nn3ncccc3c2-c2ccnc(Nc3ccccc3)n2)cc1 | 6.51 µM | > 25 µM | > 25 µM | > 22.2 µM | > 25 µM | > 14.4 µM | > 25 µM | 11 µM | > 25 µM | 2.94 µM | > 25 µM | > 15.1 µM | > 25 µM | > 25 µM | 9.67 µM | > 25 µM | 3.69 µM | > 25 µM | > 20.6 µM | 10.2 |
| CC1=C(/C=C/C(C)=C/C=C/C(C)=C/C(=O)Nc2ccc(O)cc2)C(C)(C)CCC1 | – | 7.6 µM and 14.9 µM | 6.48 µM and 18.7 µM | 2.87 µM | 8.69 µM and 12.1 µM | 4.83 µM | 20.4 µM and 18.2 µM | 2.93 µM | 12.1 µM and 21.4 µM | 5.14 µM | 20.7 µM and 25.2 µM | 4.55 µM | 17.4 µM and 24 µM | 9.24 µM and 15.5 µM | 0.932 µM | 3.74 µM and 12.3 µM | 4.79 µM | 16.3 µM and 17.7 µM | 2.1 µM | 1.31 |
| C=C1C(=O)O[C@@H]2C[C@@H]1CC[C@@]1(C)O[C@@H]1CC[C@@]1(C)O[C@@H]1CC[C@@]2(C)O | 21 µM | 63.2 µM | 42.3 µM | 17.4 µM | 34.8 µM | 17.6 µM | 66 µM | 30.3 µM | > 100 µM | 32.3 µM | > 100 µM | 43.6 µM | > 100 µM | 17 µM | 19.6 µM | 60.6 µM | 21.5 µM | 66.4 µM | 16.2 µM | 2.09 |
| O=C(O)CCCCn1cnc2c(=S)nc[nH]c21 | – | > 100 µM | > 100 µM | – | > 100 µM | – | > 100 µM | – | > 100 µM | – | > 100 µM | – | > 100 µM | > 100 µM | – | > 100 µM | – | > 100 µM | – | – |
| N#CN1CCC[C@H]1C(=O)N1CCc2c(-c3[nH]nc4ncccc34)cccc21 | < 0.01 µM | 0.0129 µM | 16.7 µM | < 0.01 µM | 13.9 µM | 0.157 µM | 21.5 µM | 0.018 µM | 11.3 µM | 0.101 µM | 25 µM | < 0.01 µM | 14.5 µM | 15 µM | 0.281 µM | 4.41 µM | < 0.01 µM | 7.89 µM | 0.0279 µM | 0.0227 |
| C=C1CCC2C3(C)COC(c4ccc(SC)cc4)OC3CCC2(C)C1C/C=C1/C(=O)OCC1O (configuration not stated) | 2.42 µM | 7.02 µM | 32.1 µM | 8.67 µM | 21.1 µM | 16.8 µM | 30.6 µM | 11.5 µM | 23.7 µM | 7.67 µM | 26.9 µM | 4.17 µM | 17.4 µM | 13.7 µM | 8.14 µM | 23.7 µM | 6.25 µM | 17.2 µM | 14.9 µM | 2.53 |
| O=C1/C(=C/c2ccccc2)CCC/C1=C\c1ccccc1 | 2.54 µM | 11.5 µM and 18.7 µM and 5.96 µM | 11.9 µM and 33.3 µM and 59.7 µM | 6.84 µM and 18.9 µM | 12.3 µM and 32.7 µM and 38.2 µM | 6 µM and 12.2 µM | 10.9 µM and 29 µM and 31 µM | 16.9 µM | 13.5 µM and 34 µM | 7.8 µM and 15.8 µM | 14.8 µM and 38.2 µM and 39.1 µM | 6.3 µM and 13.1 µM | 11.7 µM and 39.8 µM and 33.3 µM | 11.6 µM and 38.6 µM | 7.49 µM | 13.6 µM and 26.5 µM | 6.72 µM and 9.22 µM | 12.1 µM and 29.2 µM and 26.2 µM | 6.54 µM and 21 µM | 15.1 |
| CCC1CC(=O)N(SCC(N)C(=O)O)C1=O (configuration not stated) | – | > 100 µM | > 100 µM | – | > 100 µM | – | > 100 µM | – | > 100 µM | – | > 100 µM | – | > 100 µM | > 100 µM | – | > 100 µM | – | > 100 µM | – | – |
| O=C(c1cccs1)c1c(C(F)(F)F)n([O-])c2ccc(F)cc2[n+]1=O | 0.868 µM | 2.47 µM | 2.25 µM | 1.52 µM | 2.86 µM | 1.38 µM | 2.86 µM | 1.15 µM | 3.12 µM | 1.69 µM | 3.7 µM | 1.53 µM | 2.91 µM | 3.23 µM | 1.76 µM | 3.58 µM | 1.5 µM | 2.82 µM | 0.669 µM | 0.69 |
| CCOC(=O)c1c(C)n2c(=O)cc(C)c3c(OC(C)=O)c(OC(C)=O)cc1c32 | 10.9 µM | 47.5 µM | 35.5 µM | 4.87 µM | 22.5 µM | 5.71 µM | > 65 µM | 6.33 µM | 22.2 µM | 4.96 µM | 17.8 µM | 7.64 µM | 25.3 µM | > 40.9 µM | 5.2 µM | 45.2 µM | 4.89 µM | > 71.5 µM | 9.93 µM | 4.08 |
| COC(=O)c1ccc([N+](=O)[O-])c(O)c1 | – | > 100 µM | > 100 µM | – | > 100 µM | – | > 100 µM | – | > 100 µM | – | > 100 µM | – | > 100 µM | > 100 µM | – | > 100 µM | – | > 100 µM | – | – |
| CC1OC(OC2CC(O)C3(CO)C4C(O)CC5(C)C(C6=CC(=O)OC6)CCC5(O)C4CCC3(O)C2)C(O)C(O)C1O (configuration not stated) | < 0.0147 µM | 0.102 µM | 0.0172 µM | 0.0646 µM | 0.251 µM | 0.0296 µM | 0.177 µM | < 0.012 µM | < 0.0152 µM | < 0.0107 µM | < 0.0142 µM | 0.0237 µM | 0.105 µM | 0.0342 µM | < 0.0138 µM | 0.0291 µM | 0.01 µM | 0.0191 µM | < 0.0131 µM | < 0.0121 |
